The results in this text go back to paper PMC7664879, “Discovery of 12O—A Novel Oral Multi-Kinase Inhibitor for the Treatment of Solid Tumor” (Molecules, 2020).

One experiment concerns HeLa. The experiment is described as follows: CCK-8 cell growth inhibition, HeLa. The format is cell-based, human. The settings on record: Homo sapiens, HeLa; cervical cancer; CCK-8 assay, 72-h incubation. On the procedure: (§1) In vitro anticancer screening of all newly synthesized compounds towards human solid tumor cells, cervical (SiHa) and ovarian (SKOV3) cancer cell lines, was carried out by standard CCK-8 assay with cisplatin as the positive control, as cisplatin is one of the most used chemotherapy drugs. […] The compound was further evaluated in a dose response study against a panel of solid tumor cells, including cervical cancer cell lines (SiHa and HeLa), ovarian cancer cell lines (SKOV3 and OVCAR-5), breast cancer cell lines (4T1 and MCF-7), lung cancer cell lines (A549 and H460) to test cytotoxic activity. The IC50 values were summarized in Table 2, including the cytotoxic activity of the cisplatin used as reference compound.
(§2) The viability of cells as determined using the CCK8 assay method. Cells were seeded (2000–3000 cells per well) in 96-well plates. After incubation for 24 h in serum-containing media, the cells were treated with drugs at different concentrations diluted with culture medium for 72 h at 37 °C with a 5% CO2 atmosphere. […] Finally, absorbance values of test wells (AS), control wells (AC) and blank wells (Ab) at 450 nm were read using the Microplate Reader (Promega, WI). Inhibition ratios were calculated as follows: [(AC − AS)/ (AC−Ab)] × 100%. IC50 values were calculated using GraphPad software.
In general terms: Tetrazolium assays rely on reduction of a dye to a coloured formazan, in cell work by metabolically active cells.

The subject of the next experiment is MCF-7. The experiment is described as follows: CCK-8 cell growth inhibition, MCF-7. The format is cell-based, human. The following applies: Homo sapiens, MCF7; breast cancer; CCK-8 assay, 72-h incubation. On the procedure: as §1, §2
Another experiment addresses T1, CDK7/cyclinH/MAT1(h) (Homo sapiens, UniProt P50613).
T1 construct: purchased Eurofins (KinaseProfiler service)
The experiment is described as follows: Kinase inhibition assay (Eurofins KinaseProfiler). The format is biochemical. The following applies: ATP at Km. As for the experimental part:
(§3) Kinase inhibition profiles were determined using KinaseProfiler services provided by Eurofins, and ATP concentrations used are the Km of corresponding kinases.
CDK7/cyclinH/MAT1 (h) was incubated with 8 mM MOPS pH 7.0, 0.2 mM EDTA, 500 uM peptide, 10 mM MgAcetate and [gamma-33P]-ATP (specific activity and concentration as required).
(§4) All the reactions above were initiated by the addition of the Mg/ATP mix. After incubation for 40 min at room temperature, the reaction was stopped by the addition of phosphoric acid to a concentration of 0.5%. An amount of 10 µL of the reaction was then spotted onto a P30 filtermat and washed four times for 4 min in 0.425% phosphoric acid and once in methanol prior to drying and scintillation counting.

The next experiment deals with T2, CDK9/cyclin T1(h) (Homo sapiens, UniProt P50750).
T2 construct: purchased Eurofins (KinaseProfiler service)
The experiment is described as follows: Kinase inhibition assay (Eurofins KinaseProfiler). The format is biochemical. The following applies: ATP at Km. On the procedure:
as §3
CDK9/cyclinT1 (h) was incubated with 8 mM MOPS pH 7.0, 0.2 mM EDTA, 100 uM […], 10 mM MgAcetate and [gamma-33P]-ATP (specific activity and concentration as required).
as §4

Another experiment deals with T3, Abl(h) (Homo sapiens, UniProt P00519).
T3 construct: purchased Eurofins (KinaseProfiler service)
The experiment is described as follows: Kinase inhibition assay (Eurofins KinaseProfiler). The format is biochemical. The settings on record: ATP at Km. On the procedure: as §3
(§5) Flt1 (h) was incubated with 8 mM MOPS pH 7.0, 0.2 mM EDTA, 250 uM KKKSPGEYVNIEFG, 10 mM MgAcetate and [g- 33P]-ATP; Flt3 (h) [Abl (h)] was incubated with 8 mM MOPS pH 7.0, 0.2 mM EDTA, 50 uM EAIYAAPFAKKK, 10 mM MgAcetate and [gamma-33P]- ATP; Flt4 (h) was incubated with 8 mM MOPS pH 7.0, 0.2 mM EDTA, 500 uM GGEEEEYFELVKKKK, 10 mM MgAcetate and [gamma-33P]-ATP.
as §4

The target of another experiment is T4, FLT1 (VEGFR1) (Homo sapiens, UniProt P17948).
T4 construct: purchased Eurofins (KinaseProfiler service)
The experiment is described as follows: Kinase inhibition assay (Eurofins KinaseProfiler). The format is biochemical. The settings on record: ATP at Km. As for the experimental part: as §3, §5, §4

The next experiment addresses T5, FLT3(h) (Homo sapiens, UniProt P36888).
T5 construct: purchased Eurofins (KinaseProfiler service)
The experiment is described as follows: Kinase inhibition assay (Eurofins KinaseProfiler). The settings on record: ATP at Km. The experiment is classed as biochemical. As for the experimental part: as §3, §5, §4

For a further experiment, the target named is T6, FLT4 (VEGFR3) (Homo sapiens, UniProt P35916).
T6 construct: purchased Eurofins (KinaseProfiler service)
The experiment is described as follows: Kinase inhibition assay (Eurofins KinaseProfiler). The experiment is classed as biochemical. The settings on record: ATP at Km. On the procedure:
as §3, §5, §4

The next experiment has as its target T7, PDGFR-alfa(h) (Homo sapiens, UniProt P16234).
T7 construct: purchased Eurofins (KinaseProfiler service)
The experiment is described as follows: Kinase inhibition assay (Eurofins KinaseProfiler). The format is biochemical. The following applies: ATP at Km. As for the experimental part: as §3
(§6) PDGFR-alfa(h) [PDGFR-beta(h)] was incubated with 8 mM MOPS pH 7.0, 0.2 mM EDTA, 0.1 mg/mL poly(Glu, Tyr) 4:1, 10 mM MnCl2, 10 mM MgAcetate and [gamma-33P]-ATP.
as §4

Another experiment deals with T8, PDGFR-beta(h) (Homo sapiens, UniProt P09619).
T8 construct: purchased Eurofins (KinaseProfiler service)
The experiment is described as follows: Kinase inhibition assay (Eurofins KinaseProfiler). The format is biochemical. The settings on record: ATP at Km. As for the experimental part:
as §3, §6, §4

Another experiment has as its target T9, Src(1-530)(h) (Homo sapiens, UniProt P12931).
T9 construct: Src (1-530) (h) was incubated with; purchased Eurofins (KinaseProfiler service)
The experiment is described as follows: Kinase inhibition assay (Eurofins KinaseProfiler). The following applies: ATP at Km. The experiment is classed as biochemical. On the procedure: as §3
Src (1-530) (h) was incubated with 8 mM MOPS pH 7.0, 0.2 mM EDTA, 500 uM GGEEEEYFELVKKKK, 10 mM MgAcetate and [gamma-33P]-ATP.
as §4

For the next experiment, the system named is SKOV3 cells. The experiment is described as follows: Colony formation assay, SKOV3. The format is cell-based, human. An excerpt:
Colony formation assay assesses the effect of a therapy on clonogenic survival which is one of the most important parameters of therapy efficacy in oncology. […] We also performed colony formation assay in SKOV3 cells at concentrations according to IC50 values to confirm the result (Figure S3).
Cells treated with indicated compounds or vehicle were washed with PBS, trypsinized, and reseeded into 6-well plates at 500–1000 cells per well. The colonies were allowed to form for 10–15 days. At the end of the culture, cells were washed with PBS, fixed with methanol for 30 min, then stained with 0.5% crystal violet overnight. After careful washing, the images were taken.

The structures appear in SMILES notation.

T5 sequence (P36888 27-993): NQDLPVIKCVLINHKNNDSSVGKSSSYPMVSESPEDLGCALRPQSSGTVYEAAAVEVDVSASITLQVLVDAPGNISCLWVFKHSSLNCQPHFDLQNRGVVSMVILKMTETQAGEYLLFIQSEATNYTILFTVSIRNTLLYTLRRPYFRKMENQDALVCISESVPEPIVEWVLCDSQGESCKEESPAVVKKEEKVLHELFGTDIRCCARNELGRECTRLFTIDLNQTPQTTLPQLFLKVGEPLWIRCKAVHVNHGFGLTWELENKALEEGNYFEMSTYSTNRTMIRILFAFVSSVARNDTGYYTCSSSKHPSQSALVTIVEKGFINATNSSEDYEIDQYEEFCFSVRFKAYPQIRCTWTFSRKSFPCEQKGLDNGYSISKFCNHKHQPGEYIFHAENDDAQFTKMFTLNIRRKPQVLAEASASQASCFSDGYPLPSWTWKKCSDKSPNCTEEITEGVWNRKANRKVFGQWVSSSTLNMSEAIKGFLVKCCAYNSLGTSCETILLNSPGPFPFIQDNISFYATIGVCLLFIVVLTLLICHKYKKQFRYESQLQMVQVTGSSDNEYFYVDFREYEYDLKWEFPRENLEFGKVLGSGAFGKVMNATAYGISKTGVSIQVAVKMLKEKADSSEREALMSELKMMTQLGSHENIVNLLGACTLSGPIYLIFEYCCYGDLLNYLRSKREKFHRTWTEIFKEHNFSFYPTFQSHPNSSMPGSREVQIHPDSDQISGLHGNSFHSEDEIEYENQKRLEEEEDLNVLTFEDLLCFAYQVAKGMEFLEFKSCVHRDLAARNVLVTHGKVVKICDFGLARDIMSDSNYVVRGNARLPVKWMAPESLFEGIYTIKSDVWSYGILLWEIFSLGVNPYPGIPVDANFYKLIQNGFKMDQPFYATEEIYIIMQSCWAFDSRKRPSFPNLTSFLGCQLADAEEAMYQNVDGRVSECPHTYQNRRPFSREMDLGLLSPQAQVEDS
T6 sequence (P35916 25-1363): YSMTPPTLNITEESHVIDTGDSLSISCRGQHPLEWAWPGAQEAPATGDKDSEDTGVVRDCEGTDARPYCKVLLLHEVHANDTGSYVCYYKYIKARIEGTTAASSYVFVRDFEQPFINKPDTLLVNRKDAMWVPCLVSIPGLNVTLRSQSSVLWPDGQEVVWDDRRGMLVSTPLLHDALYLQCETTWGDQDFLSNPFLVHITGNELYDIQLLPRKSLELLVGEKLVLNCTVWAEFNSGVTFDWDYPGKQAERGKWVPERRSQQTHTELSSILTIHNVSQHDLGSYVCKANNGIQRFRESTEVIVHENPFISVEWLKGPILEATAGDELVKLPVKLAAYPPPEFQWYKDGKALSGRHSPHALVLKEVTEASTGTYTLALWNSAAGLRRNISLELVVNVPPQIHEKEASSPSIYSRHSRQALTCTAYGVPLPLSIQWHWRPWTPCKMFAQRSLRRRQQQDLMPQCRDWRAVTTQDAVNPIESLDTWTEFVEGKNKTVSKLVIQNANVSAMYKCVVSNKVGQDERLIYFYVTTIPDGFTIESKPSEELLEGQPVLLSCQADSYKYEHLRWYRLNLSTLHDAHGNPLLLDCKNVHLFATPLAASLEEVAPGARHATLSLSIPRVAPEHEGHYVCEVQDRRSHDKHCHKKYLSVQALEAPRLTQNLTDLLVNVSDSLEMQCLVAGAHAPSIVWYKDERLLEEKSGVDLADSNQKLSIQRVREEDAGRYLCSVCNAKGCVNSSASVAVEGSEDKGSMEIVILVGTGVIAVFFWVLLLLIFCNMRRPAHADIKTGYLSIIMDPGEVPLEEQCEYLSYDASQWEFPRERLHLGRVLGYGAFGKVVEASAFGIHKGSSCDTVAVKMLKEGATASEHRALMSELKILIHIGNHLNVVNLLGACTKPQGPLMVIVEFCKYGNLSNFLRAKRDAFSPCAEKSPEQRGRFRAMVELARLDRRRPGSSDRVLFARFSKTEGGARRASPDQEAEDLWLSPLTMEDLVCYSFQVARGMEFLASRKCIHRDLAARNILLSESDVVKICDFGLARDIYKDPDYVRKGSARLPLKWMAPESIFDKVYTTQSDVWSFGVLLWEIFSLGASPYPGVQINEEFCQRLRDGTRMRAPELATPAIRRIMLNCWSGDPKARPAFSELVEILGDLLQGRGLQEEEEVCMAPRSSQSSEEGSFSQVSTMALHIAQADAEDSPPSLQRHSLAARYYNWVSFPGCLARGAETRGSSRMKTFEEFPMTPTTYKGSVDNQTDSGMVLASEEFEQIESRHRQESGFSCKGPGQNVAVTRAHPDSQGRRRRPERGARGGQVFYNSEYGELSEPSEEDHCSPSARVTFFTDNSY
T2 sequence (P50750 whole entry): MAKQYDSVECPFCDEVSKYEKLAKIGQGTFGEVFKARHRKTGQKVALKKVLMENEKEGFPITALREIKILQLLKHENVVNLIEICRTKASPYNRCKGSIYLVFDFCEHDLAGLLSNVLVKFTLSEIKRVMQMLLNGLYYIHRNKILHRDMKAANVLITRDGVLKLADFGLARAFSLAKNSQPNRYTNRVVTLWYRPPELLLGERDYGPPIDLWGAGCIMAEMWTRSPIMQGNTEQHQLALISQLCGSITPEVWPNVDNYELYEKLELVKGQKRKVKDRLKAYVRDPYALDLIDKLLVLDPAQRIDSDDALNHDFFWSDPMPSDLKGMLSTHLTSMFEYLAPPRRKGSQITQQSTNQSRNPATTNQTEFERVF
T2 sequence (O60563 whole entry partner): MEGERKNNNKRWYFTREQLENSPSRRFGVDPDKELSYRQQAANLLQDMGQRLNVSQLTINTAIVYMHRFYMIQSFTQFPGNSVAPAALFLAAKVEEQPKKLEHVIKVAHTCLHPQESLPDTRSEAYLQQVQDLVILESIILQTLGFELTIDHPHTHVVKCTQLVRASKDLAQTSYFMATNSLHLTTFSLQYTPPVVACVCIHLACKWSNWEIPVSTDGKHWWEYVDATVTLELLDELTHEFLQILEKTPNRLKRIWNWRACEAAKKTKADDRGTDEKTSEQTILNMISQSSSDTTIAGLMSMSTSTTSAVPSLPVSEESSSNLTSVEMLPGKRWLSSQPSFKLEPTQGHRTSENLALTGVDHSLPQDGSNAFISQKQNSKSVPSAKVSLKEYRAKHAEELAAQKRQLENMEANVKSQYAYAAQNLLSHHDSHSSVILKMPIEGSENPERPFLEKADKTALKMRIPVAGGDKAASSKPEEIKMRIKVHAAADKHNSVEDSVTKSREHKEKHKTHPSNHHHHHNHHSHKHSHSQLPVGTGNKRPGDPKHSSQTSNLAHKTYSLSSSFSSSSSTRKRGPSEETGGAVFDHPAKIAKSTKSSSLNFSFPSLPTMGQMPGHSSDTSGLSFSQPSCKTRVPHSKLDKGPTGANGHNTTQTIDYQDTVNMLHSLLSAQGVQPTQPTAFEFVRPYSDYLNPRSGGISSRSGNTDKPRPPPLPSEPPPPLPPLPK
T3 sequence (P00519 whole entry): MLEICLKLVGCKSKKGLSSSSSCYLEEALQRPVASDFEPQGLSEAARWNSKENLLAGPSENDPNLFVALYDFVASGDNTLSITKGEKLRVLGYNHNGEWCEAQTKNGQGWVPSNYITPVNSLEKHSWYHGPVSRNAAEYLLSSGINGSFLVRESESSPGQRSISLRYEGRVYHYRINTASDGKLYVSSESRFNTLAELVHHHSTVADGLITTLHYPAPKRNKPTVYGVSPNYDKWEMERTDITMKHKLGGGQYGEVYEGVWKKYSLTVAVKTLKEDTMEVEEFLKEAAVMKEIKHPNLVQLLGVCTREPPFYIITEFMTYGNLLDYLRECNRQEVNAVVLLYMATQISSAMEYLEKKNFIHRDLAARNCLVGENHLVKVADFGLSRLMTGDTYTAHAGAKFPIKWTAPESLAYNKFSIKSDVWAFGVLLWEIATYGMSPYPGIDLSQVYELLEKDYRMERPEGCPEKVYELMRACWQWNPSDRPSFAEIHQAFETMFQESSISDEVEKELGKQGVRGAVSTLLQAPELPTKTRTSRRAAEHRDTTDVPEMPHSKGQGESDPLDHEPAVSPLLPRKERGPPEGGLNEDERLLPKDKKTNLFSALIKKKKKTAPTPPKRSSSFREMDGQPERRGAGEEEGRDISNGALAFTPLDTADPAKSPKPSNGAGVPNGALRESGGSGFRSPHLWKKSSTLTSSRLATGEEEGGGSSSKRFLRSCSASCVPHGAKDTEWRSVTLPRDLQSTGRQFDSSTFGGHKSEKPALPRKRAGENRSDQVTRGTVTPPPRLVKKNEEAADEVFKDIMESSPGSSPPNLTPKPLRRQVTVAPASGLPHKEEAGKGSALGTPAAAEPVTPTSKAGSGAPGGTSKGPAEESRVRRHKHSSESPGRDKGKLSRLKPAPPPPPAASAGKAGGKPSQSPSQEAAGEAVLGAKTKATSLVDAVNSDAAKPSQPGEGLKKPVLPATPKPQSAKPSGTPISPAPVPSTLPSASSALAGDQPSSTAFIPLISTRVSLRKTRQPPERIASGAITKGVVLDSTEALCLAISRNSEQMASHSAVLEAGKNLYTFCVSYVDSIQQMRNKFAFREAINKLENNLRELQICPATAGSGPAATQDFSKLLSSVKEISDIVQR
T9 sequence (P12931 1-530): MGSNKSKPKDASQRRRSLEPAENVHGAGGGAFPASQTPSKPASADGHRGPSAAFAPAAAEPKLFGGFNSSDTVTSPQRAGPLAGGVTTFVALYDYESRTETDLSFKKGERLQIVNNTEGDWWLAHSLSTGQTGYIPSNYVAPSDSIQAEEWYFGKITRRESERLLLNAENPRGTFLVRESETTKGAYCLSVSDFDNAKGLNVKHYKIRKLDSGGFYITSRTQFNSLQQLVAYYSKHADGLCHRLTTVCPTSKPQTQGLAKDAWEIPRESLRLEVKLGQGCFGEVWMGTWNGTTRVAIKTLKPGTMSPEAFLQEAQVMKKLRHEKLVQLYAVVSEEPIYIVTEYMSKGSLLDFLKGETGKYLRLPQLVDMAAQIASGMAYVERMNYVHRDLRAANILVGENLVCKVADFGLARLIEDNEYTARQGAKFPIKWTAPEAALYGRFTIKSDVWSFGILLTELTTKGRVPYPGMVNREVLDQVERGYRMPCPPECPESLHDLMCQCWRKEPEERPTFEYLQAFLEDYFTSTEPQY

As to `CC(C)n1nnc2ccc(-c3nc(Nc4ccc(CNC(=O)C5(C(=O)Nc6ccccc6)CC5)cc4)ncc3F)cc21` [12O], the IC50 was 24 nM in the experiment on HeLa; 10 nM with MCF-7; 9 nM at CDK9/cyclin T1(h); 24 nM at FLT3(h); 68 nM against FLT4 (VEGFR3). The inhibition at 1 µM is 53% at CDK7/cyclinH/MAT1(h); 100% at CDK9/cyclin T1(h) (1 µM); 31% against Abl(h); 50% at FLT1 (VEGFR1); 98% at FLT3(h) (1 µM); 95% against FLT4 (VEGFR3) (1 µM). Also, the inhibition at 1 µM against PDGFR-alfa(h) is -1%; against PDGFR-beta(h) it was 12%; against Src(1-530)(h), 46%. For the same compound, the “proliferation by colony formation assay” value in the experiment with SKOV3 cells is “effectively inhibited”.

In general, IC50 refers to the point on the concentration scale where inhibition reaches its midpoint. A higher IC50 goes with a need for much substance. By inhibition is commonly meant the drop in the measured response relative to a control, in per cent.
